One assay relates to ob/ob and db/db mice. Conditions: 8 day administration; cited from earlier work.
The subject of a further assay is AMPK. As to the kind of experiment: AMPK enzymatic activity (Delfia technology, AMARA peptide substrate). It counts as biochemical. Conditions: AMP at 200 μM as reference. On the procedure:
The following biological test allows the determination of the efficacy of compounds of formula (I) onto AMPK protein.
AMPK enzyme activities were assayed by using a Delfia technology. AMPK enzyme activities were carried out in microtiter plates in the presence of a synthetic peptide substrate (AMARAASAAALARRR, the “AMARA” peptide) and activators in serial dilutions. Reactions were initiated by the addition of AMPK. Enzyme activity was assayed by using an anti-phosphoserine antibody to measure the quantity of phosphate incorporated into the AMARAA.
N°: Number of the molecule
Activity: Ratio between the % of control (basal activity) of compound of formula (1) at 30 μM and the % of control (basal activity) of AMP (natural substrate) at 200 μM.

Another assay concerns Ob/ob mice. As to the kind of experiment: In vivo control of glycemia in ob/ob mice. Conditions: oral BID during 8 days, 150 mg/kg, compared to an animal group control. On the procedure:
The following biological test allows the determination of the efficacy of compounds of formula (I) onto the control of glycemia on a pharmaceutical animal model.
All experiments on animals were carried out in accordance with the European animal care guidelines (ETS123).
Ob/ob mice from CERJ (53940 Le Genest Saint Isle, France) were treated orally with compounds of formula (1) BID during 8 days. At that time, a blood sample was collected and glucose concentration was determined using ABX diagnostic kit.
Results are given as a percentage of glycemia variation compared to an animal group control.

The structures appear in SMILES notation.

Consider `NC(=O)c1ncn([C@@H]2O[C@H](CO)[C@@H](O)[C@H]2O)c1N` [AICAR], for which the reduces blood glucose with ob/ob and db/db mice is 35%.
As for `COc1ccc(-c2c(O)c3c(-c4ccc5c(c4)CCC5)c(Cl)sc3[nH]c2=O)cc1` [Compound 1, 2-chloro-4-hydroxy-3-indan-5-yl-5-(4-methoxyphenyl)-7H-thieno[2,3-b]pyridin-6-one], the “Activity: Ratio between the % of control (basal activity) of compound at 30 μM and the % of control (basal activity) of AMP at 200 μM” value (shortened to “Activity: Ratio between the % of control”) in the assay on AMPK is on record as “C (C>130%)”.
Same read-out and setting: in the case of `O=c1[nH]c2sc(Cl)c(-c3ccc4c(c3O)CCC4)c2c(O)c1-c1ccccc1` [Compound 2, 2-chloro-4-hydroxy-3-(4-hydroxyindan-5-yl)-5-phenyl-7H-thieno[2,3-b]pyridin-6-one] it was “B (110%<B<130%)”; in that of `O=c1[nH]c2sc(Cl)c(-c3ccc4c(c3)CCC4)c2c(O)c1-c1ccccc1` [Compound 3, 2-chloro-4-hydroxy-3-indan-5-yl-5-phenyl-7H-thieno[2,3-b]pyridin-6-one], “B (110%<B<130%)”; in that of `O=c1[nH]c2sc(Cl)c(-c3ccc4c(c3)CCC4)c2c(O)c1-c1ccc(F)cc1` [Compound 4, 2-chloro-5-(4-fluorophenyl)-4-hydroxy-3-indan-5-yl-7H-thieno[2,3-b]pyridin-6-one], “B (110%<B<130%)”.
Still for that read-out and setting: in the case of `COc1cccc(-c2c(O)c3c(-c4ccc5c(c4)CCC5)c(Cl)sc3[nH]c2=O)c1` [Compound 5, 2-chloro-4-hydroxy-3-indan-5-yl-5-(3-methoxyphenyl)-7H-thieno[2,3-b]pyridin-6-one] it was “C (C>130%)”.
As for `N#Cc1cccc(-c2c(O)c3c(-c4ccc5c(c4)CCC5)c(Cl)sc3[nH]c2=O)c1` [Compound 6, 3-(2-chloro-4-hydroxy-3-indan-5-yl-6-oxo-7H-thieno[2,3-b]pyridin-5-yl)benzonitrile], the “Activity: Ratio between the % of control” value in the assay on AMPK was “C (C>130%)”.
On the same count and under the same terms, to `Cc1cccc(-c2c(O)c3c(-c4ccc5c(c4)CCC5)c(Cl)sc3[nH]c2=O)c1` [Compound 7, 2-chloro-4-hydroxy-3-indan-5-yl-5-(m-tolyl)-7H-thieno[2,3-b]pyridin-6-one] belongs “C (C>130%)”; to `O=c1[nH]c2sc(Cl)c(-c3ccc4c(c3O)CCC4)c2c(O)c1-c1ccc(F)cc1` [Compound 8, 2-chloro-5-(4-fluorophenyl)-4-hydroxy-3-(4-hydroxyindan-5-yl)-7H-thieno[2,3-b]pyridin-6-one], “C (C>130%)”; to `O=c1[nH]c2sc(Cl)c(-c3ccc4c(c3O)CCC4)c2c(O)c1-c1cccc(F)c1` [Compound 9, 2-chloro-5-(3-fluorophenyl)-4-hydroxy-3-(4-hydroxyindan-5-yl)-7H-thieno[2,3-b]pyridin-6-one], “C (C>130%)”.
On the same count and under the same terms, in the case of `O=c1[nH]c2sc(Cl)c(-c3ccc4c(c3)CCC4)c2c(O)c1-c1cccnc1` [Compound 10, 2-chloro-4-hydroxy-3-indan-5-yl-5-(3-pyridyl)-7H-thieno[2,3-b]pyridin-6-one] it was “A (A<110%)”; in that of `O=c1[nH]c2sc(Cl)c(-c3ccc4c(c3O)CCC4)c2c(O)c1-c1ccccc1F` [Compound 11, 2-chloro-5-(2-fluorophenyl)-4-hydroxy-3-(4-hydroxyindan-5-yl)-7H-thieno[2,3-b]pyridin-6-one], “B (110%<B<130%)”.
As for `O=c1[nH]c2sc(Cl)c(-c3ccc4c(c3O)CCCC4)c2c(O)c1-c1ccccc1` [Compound 12, 2-chloro-4-hydroxy-3-(5-hydroxytetralin-6-yl)-5-phenyl-7H-thieno[2,3-b]pyridin-6-one], the “Activity: Ratio between the % of control” value with AMPK is given as “C (C>130%)”. The “% glycemia variation” value in the assay on Ob/ob mice is reported as −27%.
In the case of `O=c1[nH]c2sc(Cl)c(-c3ccc4c(c3)CCCC4)c2c(O)c1-c1cccnc1` [Compound 13, 2-chloro-4-hydroxy-5-(3-pyridyl)-3-tetralin-6-yl-7H-thieno[2,3-b]pyridin-6-one], in the assay on AMPK, the “Activity: Ratio between the % of control” value is given as “C (C>130%)”.
Take `N#Cc1cccc(-c2c(O)c3c(-c4ccc5c(c4)CCCC5)c(Cl)sc3[nH]c2=O)c1` [Compound 15, 3-(2-chloro-4-hydroxy-6-oxo-3-tetralin-6-yl-7H-thieno[2,3-b]pyridin-5-yl)benzonitrile]: the “Activity: Ratio between the % of control” value in the assay with AMPK was “B (110%<B<130%)”.
The same measure, in the same setting: in the case of `[Na+].[Na+].[Na+].[O-]c1nc2sc(Cl)c(-c3ccc4c(c3[O-])CCCC4)c2c([O-])c1-c1ccccc1` [Compound 16, trisodium 2-chloro-3-(5-oxidotetralin-6-yl)-5-phenyl-thieno[2,3-b]pyridine-4,6-diolate] it was “B (110%<B<130%)”; in that of `O=c1[nH]c2sc(Cl)c(-c3ccc4c(c3)CCCC4)c2c(O)c1-c1ccccc1` [Compound 17, 2-chloro-4-hydroxy-5-phenyl-3-tetralin-6-yl-7H-thieno [2,3-b]pyridin-6-one], “A (A<110%)”; in that of `O=c1[nH]c2sc(Cl)c(-c3ccc4c(c3O)CCCC4)c2c(O)c1-c1ccc(F)cc1` [Compound 18, 2-chloro-5-(4-fluorophenyl)-4-hydroxy-3-(5-hydroxytetralin-6-yl)-7H-thieno[2,3-b]pyridin-6-one], “B (110%<B<130%)”.
Turning to `O=c1[nH]c2sc(Cl)c(-c3ccc4c(c3[O-])CCCC4)c2c([O-])c1-c1ccccc1.[Na+].[Na+]` [Compound 19, disodium 2-chloro-3-(5-oxidotetralin-6-yl)-6-oxo-5-phenyl-7H-thieno[2,3-b]pyridin-4-olate], in the assay on AMPK, the “Activity: Ratio between the % of control” value was “C (C>130%)”. In the assay with Ob/ob mice, the “% glycemia variation” value is on record as −41%.
For the compound `Cc1cccc(-c2c(O)c3c(-c4ccc5c(c4O)CCCC5)c(Cl)sc3[nH]c2=O)c1` [Compound 20, 2-chloro-4-hydroxy-3-(5-hydroxytetralin-6-yl)-5-(m-tolyl)-7H-thieno[2,3-b]pyridin-6-one], in the assay with AMPK, the “Activity: Ratio between the % of control” value is “C (C>130%)”.
`Cc1ccc(-c2c(O)c3c(-c4ccc5c(c4O)CCCC5)c(Cl)sc3[nH]c2=O)cc1` [Compound 21, 2-chloro-4-hydroxy-3-(5-hydroxytetralin-6-yl)-5-(p-tolyl)-7H-thieno[2,3-b]pyridin-6-one]: the “Activity: Ratio between the % of control” value in the assay with AMPK is given as “C (C>130%)”.
